Experiments:
THRβ [1] = target: T1, THRβ (Homo sapiens, UniProt P10828); test: Reporter gene (GAL4-THRβ-LBD / Dual-Glo luciferase) agonist activity assay in HEK293T cells; type: cell-based; conditions: ratio of reporter gene EC50 values THRα/THRβ
T1 construct: expressed in transfected cells; host or cells: HEK293T
T1 sequence (P10828 217-461): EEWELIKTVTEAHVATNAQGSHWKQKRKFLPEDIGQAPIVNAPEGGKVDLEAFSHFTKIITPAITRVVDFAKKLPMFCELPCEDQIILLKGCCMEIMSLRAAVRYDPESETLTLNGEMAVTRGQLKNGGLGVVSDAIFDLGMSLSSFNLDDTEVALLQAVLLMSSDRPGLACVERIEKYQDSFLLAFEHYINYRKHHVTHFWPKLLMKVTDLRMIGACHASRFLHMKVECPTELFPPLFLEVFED
Text: Experimental Example 1: Detection of THRα and THRβ Agonist Activities of Compounds Based on Reporter Gene Activity Assay Method
1.1 Construction and Preparation of Plasmids pGAL4-THR-LBD and pG5-Luc
The pGAL4-THRα-LBD and pGAL4-THRβ-LBD plasmids used in the reporter gene assay system were constructed by a conventional molecular cloning method comprising the following main steps: the cDNA sequences of THRα (NM_003250) and THRβ (NM_000461) corresponding to the amino acid sequences of THRα (163-407AA) and THRβ (217-461AA) were inserted into the BamHI and NotI enzyme digestion sites of the pGAL4 vector by the PCR technique respectively to obtain the pGAL4-THRα-LBD and pGAL4-THRβ-LBD plasmids; the pG5-Luc (#E249A) and pRL-TK (#E2241) plasmids were purchased from Promega; the plasmids were transfected into the E. coli DH5α by the CaCl2 method, and after further culture and amplification, the plasmids were purified by Plasmid Extraction Kits (TIANGEN, #D107) to obtain the corresponding plasmid DNAs.
1.2 Co-Transfection of Plasmids into HEK293T Cells and Treatment with Compounds
The HEK293T cells were inoculated into a 96-well plate at a density of 1×10^4/well the day before plasmid transfection. Cell transfection was conducted according to the instructions of the transfection reagent FuGENE® HD (Promega, #E2311). The main steps were as follows: taking one well as an example here, the plasmids pGAL4-THRα-LBD or pGAL4-THRβ-LBD, pG5-Luc, and pRL-TK were added in the proportions of 20 ng, 50 ng, and 5 ng to 10 μL of Opti-MEM™ I medium (Gibco, #11058021) and mixed well; subsequently, 0.25 uL of FuGENE® HD was added, mixed well, and then left at room temperature for 5 min; afterwards, 10 μL of the mixture was added to the cell wells containing 100 μL of culture medium. After cell co-transfection for 6 h, the compound was diluted in a 3-fold gradient with dimethyl sulfoxide at the highest concentration of 1 uM. The compound was added to the cell culture medium at a total of 10 concentrations for treatment for 24 h. There were a total of two duplicate wells for each concentration. Triiodothyronine (T3) was used as the positive control.
1.3 Dual-Glo Luciferase Assay
After the cells were treated with the compound for 24 h, the cells were assayed according to the instructions of Dual-Glo® Luciferase Assay System (Promega, #E2940). The main steps were as follows: 50 μL of culture medium was aspirated from each well and discarded, and then 50 μL of Dual-Glo® Luciferase reagent was added and oscillated at room temperature for 10 min; 80 μL of lysis reaction solution was measured into a white opaque optiPlate-96-well plate, and the luminescence signal value (Firefly-Luc) of the Firefly luciferase was detected using an MD i3x multi-mode microplate reader; 40 μL of Dual-Glo® Stop & Glo® reagent was then added, and oscillated at room temperature for 10 min; the luminescence signal value (Renilla-Luc) of the Renilla luciferase was then detected using an MD i3x multi-mode microplate reader. The Firefly-Luc/Renilla-Luc ratio was used as the activation activity of the compound against THR, and the ratio in the solvent DMSO group was used for normalization; the dose-response curve was fitted with four parameters using the GraphPad Prism6.0 software, and the EC50 value was calculated.

THRβ [2] = target: T2, THRβ (Homo sapiens, UniProt P10828); test: Time-resolved FRET (THR-FRET) agonist activity assay, GST-tagged THRβ LBD with SRC2 polypeptide; type: biochemical; conditions: ratio of THR-FRET EC50 values THRα/THRβ
T2 construct: made in house; host or cells: E. coli BL21 (DE3)
T2 sequence (P10828 217-461 limits assumed): T1 sequence (P10828 217-461)
Text: Experimental Example 2: Detection of Agonist Activities of Compounds Against THRα/β Based on Time-Resolved Fluorescence Resonance Energy Transfer (THR-FRET)
By visiting NCBI, the THRα/β LBD domain sequences were found. The pET21-His-GST-dLBT-THRα LBD and pET21-His-GST-dLBT-THRβ LBD overexpression vectors were constructed by the fusion method, and sequenced to confirm the accuracy of the sequences.
The correctly sequenced THRα LBD and THRβ LBD overexpression vectors were transfected into E. coli cells BL21 (DE3), and spread on an agar plate with ampicillin. Monoclones were picked out and amplified in an LB medium, and transferred into 1 L LB at a ratio of 1:100 for large-scale culture. When the OD value was at 0.8 to 1.2, 0.5 mM isopropyl-beta-D-thiogalactopyranoside (IPTG) was added, and induced overnight at 18° C. The bacteria were harvested, disrupted, and purified via the GST column and the molecular sieve to obtain two proteins His-GST-dLBT-THRα LBD and His-GST-dLBT-THRβ LBD.
The proteins were taken out from a refrigerator at −80° C. The proteins with the GST-tagged THRα/β LBD domain and the Eu-labelled GST antibodies were thawed slowly on ice, and an assay buffer containing a final concentration of 5 mM dithiothreitol (DTT) was formulated.
The starting concentration of the compound was 100 μM (in DMSO). The compound (100 μM in DMSO) was subjected to 3-fold isogradient dilution with DMSO to obtain a total of 11 isogradient concentrations. Subsequently, the above compounds at the isogradient concentration were further subjected to 50-fold dilution with an assay buffer containing 5 mM DTT.
The final concentrations of all components were calculated based on a system with a final volume of 20 μL per well. To 18 μL of assay buffer containing 5 mM DTT, the GST-tagged THRα/β proteins, the SRC2 ([…]) polypeptide, XL665 (Cisobio, #610SAXLB), and the Eu-labeled GST antibody were added, and the final concentrations were 2 nM, 200 nM, 0.05 nM, and 7.6 nM respectively to formulate 18 μL of reaction mixture of the proteins, polypeptide, and antibody per well.
18 μL of reaction mixture and 2 μL of diluted compound were added into an optiplate-384-well plate, and reacted at room temperature for 24 h.
The plate was read using an MD i3X multi-mode microplate reader with the excitation and emission wavelengths of 340 nm and 665 nm, respectively. The intensity of light at a wavelength of 616 nm generated by europium excited by 340 nm wavelength light from the MD i3X multi-mode microplate reader was used as the background. According to the different activation degrees of different compounds against THRα and THRβ, the intensity of the emission light at a wavelength of 665 nm generated by exciting XL665 with the exciting light at a wavelength of 616 nm was varied. The intensity ratio between these two light wavelengths (665 nm, 616 nm) was used as the activation activity of the compound against THRα or THRβ, and the ratio in the solvent DMSO group was used for normalization. The dose-response curve was fitted with four parameters using the GraphPad Prism 6.0 software, and the EC50 value was calculated.

SMILES	Selectivity (THRα/THRβ) (THRβ [1])	Selectivity (THRα/THRβ) (THRβ [2])
CNC(=O)c1ccccc1SCc1c(Cl)cc(-n2nc(N)c(=O)[nH]c2=O)cc1Cl [Compound 29]	† (†: 5 ≥ THRα/β;)	††† (†††: 20 ≥ THRα/β > 10;)
COc1ccc(OCc2c(Cl)cc(-n3ncc(=O)[nH]c3=O)cc2Cl)c(C(N)=O)c1 [Compound 69]	† (†: 5 ≥ THRα/β;)	††† (†††: 20 ≥ THRα/β > 10;)
NC(=O)c1ccccc1OCc1c(Cl)cc(-n2ncc(=O)[nH]c2=O)cc1Cl [Compound 14]	† (†: 5 ≥ THRα/β;)	†† (††: 10 ≥ THRα/β;)

The remaining lines, values ahead:

Selectivity (THRα/THRβ) (THRβ [1])	Selectivity (THRα/THRβ) (THRβ [2])	SMILES
† (†: 5 ≥ THRα/β;)	†† (††: 10 ≥ THRα/β;)	[2H]C(Oc1ccccc1C(=O)NC([2H])([2H])[2H])c1c(Br)cc(-n2nc(C(F)F)c(=O)[nH]c2=O)cc1Br (centres unmarked) [Compound 110]
† (†: 5 ≥ THRα/β;)	†† (††: 10 ≥ THRα/β;)	[2H]C([2H])(Oc1ccccc1C(=O)NC)c1c(Br)cc(-n2nc(C(F)F)c(=O)[nH]c2=O)cc1Br [Compound 108]
† (†: 5 ≥ THRα/β;)	†† (††: 10 ≥ THRα/β;)	[2H]C([2H])([2H])NC(=O)c1ccccc1OCc1c(Br)cc(-n2nc(C(F)F)c(=O)[nH]c2=O)cc1Br [Compound 109]
† (†: 5 ≥ THRα/β;)	†† (††: 10 ≥ THRα/β;)	[2H]C(Oc1ccccc1C(=O)NC)c1c(Br)cc(-n2nc(C(F)F)c(=O)[nH]c2=O)cc1Br (centres unmarked) [Compound 106]
